Source: ChEMBL document CHEMBL5344460, “Advancements in Predictive Medicine: NLRP3 Inflammasome Inhibitors and AI-Driven Predictive Health Analytics” (ACS Med Chem Lett, 2024)

Target: NACHT, LRR and PYD domains-containing protein 3 (Homo sapiens, UniProt Q96P20)
Experiment: Binding affinity to human recombinant NLRP3 inflammasome

Sequence of NACHT, LRR and PYD domains-containing protein 3 (Q96P20 whole entry, the tested form may be a part): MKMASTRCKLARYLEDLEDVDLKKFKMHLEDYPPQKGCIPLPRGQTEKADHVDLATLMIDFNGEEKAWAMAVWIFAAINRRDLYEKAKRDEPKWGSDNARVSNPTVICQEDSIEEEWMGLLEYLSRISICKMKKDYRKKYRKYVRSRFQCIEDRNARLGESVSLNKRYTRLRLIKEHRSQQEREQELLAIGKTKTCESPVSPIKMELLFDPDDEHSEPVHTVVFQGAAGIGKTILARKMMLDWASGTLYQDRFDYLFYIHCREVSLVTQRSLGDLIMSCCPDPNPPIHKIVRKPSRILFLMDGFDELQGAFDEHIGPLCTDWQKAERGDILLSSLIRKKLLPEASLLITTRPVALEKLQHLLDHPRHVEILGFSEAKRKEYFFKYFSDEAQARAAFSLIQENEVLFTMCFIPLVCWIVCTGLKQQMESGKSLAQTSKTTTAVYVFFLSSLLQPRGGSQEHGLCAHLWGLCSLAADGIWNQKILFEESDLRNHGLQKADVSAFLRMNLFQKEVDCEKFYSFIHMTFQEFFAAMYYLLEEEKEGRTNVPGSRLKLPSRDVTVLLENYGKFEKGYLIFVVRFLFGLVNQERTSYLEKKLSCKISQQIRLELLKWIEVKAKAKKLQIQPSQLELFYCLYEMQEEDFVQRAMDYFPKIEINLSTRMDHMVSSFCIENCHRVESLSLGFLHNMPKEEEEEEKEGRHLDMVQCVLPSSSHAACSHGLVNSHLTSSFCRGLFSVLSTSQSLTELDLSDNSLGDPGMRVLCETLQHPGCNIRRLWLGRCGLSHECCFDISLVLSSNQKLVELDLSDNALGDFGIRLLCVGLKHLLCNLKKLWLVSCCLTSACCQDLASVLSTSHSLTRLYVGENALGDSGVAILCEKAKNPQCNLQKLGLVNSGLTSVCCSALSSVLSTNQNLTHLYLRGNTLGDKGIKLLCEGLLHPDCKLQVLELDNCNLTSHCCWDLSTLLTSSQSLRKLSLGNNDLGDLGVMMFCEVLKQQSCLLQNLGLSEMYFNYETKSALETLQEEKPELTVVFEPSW

| Kd [nM] | SMILES |
| --- | --- |
| 3000 | COc1ccc(Cl)cc1Cn1cc(-c2ccc(C(=O)N3CCC3)cc2)nn1 |
| 980 | COc1ccc(Cl)cc1Cn1cc(C(=O)N2CC(F)(F)C2)nn1 |
| 860 | COC(=O)c1ccc(-c2cn(Cc3cc(Cl)ccc3OC)nn2)nc1 |
